In data set [1] the test system is cancer stem cells (CD44) in HuH-7 cells. Description: Inhibitory effect on cancer stem cells (FCM analysis of CD44), Example 6.4. Conditions: CD44, day 2, IC-2 50 μM, 5-FU 0.5 μM, compared with control 1% DMSO. The format is cell-based, human. The method, then:
CD44, a cancer stem cell marker, was used as an indicator to examine an inhibitory effect of IC-2 on cancer stem cells. First, 70 to 90% confluent HuH-7 cells were harvested and seeded at 1.5×10^6 cells per 10-cm cell culture dish. After 15 h, the cells were treated with hexachlorophene (15 μM), ICG-001 (15 μM), PKF118-310 (5 μM), IC-2 (50 μM), or 5-FU (0.5 μM), and the mixture was cultured at 37° C. Each control sample used was 1% DMSO, a solvent for each compound or the anti-cancer drug. Day 2 after the drug treatment, the cells were harvested from each culture dish. The cells were centrifuged at 1000 rpm and at 4° C. for 5 min to remove a supernatant and were then washed twice with 1 mL of 0.5% FBS/2 mM EDTA/PBS. Next, the cells were suspended in 500 μL of 5% BSA/0.5% FBS/2 mM EDTA/PBS for blocking at 4° C. for 15 min.
Then, 5 μL of a mouse anti-human CD44 monoclonal antibody (156-3C11, Cell Signaling Technology Inc., Danvers, Mass.) was added to 500 μL of the cell suspension. The mixture was resuspended and subjected to a primary antibody reaction in a dark room at 4° C. for 10 min. After that, the cells were washed 3 times with 1 mL of PBS. Subsequently, 1.0 μg of Alexa Fluor 488-labeled IgG (H+L) (Life Technologies Corp., Carlsbad, Calif.) was added and the mixture was suspended. Then, a secondary antibody reaction was carried out in a dark room at 4° C. for 10 min. […]

Data set [2] is described as follows: Liver cancer model mouse, body weight. In kind it is in vivo, mice. As to conditions: 30 mg/kg 5-FU or 50 mg/kg IC-2 intraperitoneally every three days. The method, then:
CD44-positive HuH-7 cells were subcutaneously transplanted in mice. Next, the engrafted mice were divided into 3 groups (DMSO group: 5 mice; 5-FU group: 4 mice; and IC-2 group: 4 mice). Then, DMSO was added to prepare 30 mg/kg of 5-FU and 50 mg/kg of IC-2 such that each liquid volume was 100 μL; and 100% DMSO, a solvent for each drug, was used as a control sample. Subsequently, each drug was dosed intraperitoneally every three days. The body weight of each mouse and the long and short diameters of a tumor were measured every three days. The tumor volume was calculated by using the following equation: Tumor volume=Long diameter×(Short diameter)^2×0.5. The volume at Day 0 was used to normalize each tumor volume, and then a graph was created. To fully evaluate a 5-FU effect, the 5-FU dose was set to an amount 2 times the regular amount 15 mg/kg used in research articles. The concentration of IC-2 corresponding to a concentration at which Wnt/β-catenin signaling was inhibited in vitro was calculated. Then, the concentration was doubled to set an IC-2 dose.

The subject of data set [3] is CD44-expressing HSC2 cells. Description: CD44-expressing cells in HSC2 cells (cell sorter analysis). As to conditions: 48 h, 25 μM IC-2 or 0.5 μM 5-FU, 83.9% without treatment. The format is cell-based, human. On the procedure: In addition, HSC2 cells were seeded at 5×10^5 cells/10-cm cell culture dish (TPP). After 24 h, the cells were treated with 0.5 μM of 5-FU or 25 μM of IC-2. Also prepared were cells without low-molecular-weight compound treatment (0 μM). After additional 48 h, the respective cells were harvested. As a primary antibody, used was a mouse anti-human CD44 antibody (Abcam Ltd., Cambridge, UK). Then, Alexa Fluor 488-labeled goat anti-mouse IgG (H+L) (Life Technologies Corp., Carlsbad, Calif.) was used. After that, a cell sorter BD bioscience FACS Aria (Becton, Dickinson and Company, Franklin Lakes, N.J.) was used for analysis.

Another data set deals with CD44high DLD-1 cells. The experiment in a line: CD44high cells in DLD-1 cells (FCM analysis). Conditions: 48 h, 50 μM IC-2, 0.5 or 5 μM 5-FU, compared with control. The format is cell-based, human. The method, then:
In addition, DLD-1 cells were seeded at 1×10^6 cells/10-cm cell culture dish. After 24 h, the cells were treated with 0.5 or 5 μM of 5-FU or 50 μM of IC-2. At additional 48 h, the cells were harvested. As a primary antibody, used was a mouse anti-human CD44 antibody (Abcam Ltd., Cambridge, UK). Then, Alexa Fluor 488-labeled goat anti-mouse IgG (H+L) (Life Technologies Corp., Carlsbad, Calif.) was used. After that, a MoFlo XDP (Beckman Coulter Inc., Fullerton, Calif.) was used for analysis.

The subject of a further data set is Wnt/β-catenin signal. As to conditions: as described in Patent Literature 1; cited from earlier work.
The subject of the next data set is cancer stem cells. Conditions: Fbxw7-deficient model mice, Takeishi et al. 2013; cited from earlier work.

In the case of `O=c1[nH]cc(F)c(=O)[nH]1` [Compound 5-FU, 5-fluorouracil, reference compound], the “number of cancer stem cells” value in data set [1] is on record as “rather increased the number of cancer stem cells”. In data set [2], the body weight result is listed as “no change in the body weight”. The “percentage of CD44-expressing cells” value in data set [3] came to 83.3%. Besides, the “percentage of CD44high cells” value with CD44high DLD-1 cells is “rather increased the percentage”.

`COc1c(Cl)cc(Cl)c(Cl)c1Cc1c(Cl)c(Cl)cc(Cl)c1OC` [HC-1, hexachlorophene methyl ether bis(2,3,5-trichloro-6-methoxyphenyl)methane]: the “Wnt/β-catenin signal in a mesenchymal stem cell and differentiation into hepatocytes” value in the data set on Wnt/β-catenin signal is reported as “inhibit a Wnt/β-catenin signal in a mesenchymal stem cell, thereby inducing differentiation of the mesenchymal stem cell into hepatocytes”.

Regarding `Cc1ccc(NC(=O)c2ccc(CN3CCN(C)CC3)cc2)cc1Nc1nccc(-c2cccnc2)n1` [imatinib], the cancer stem cells entry in the data set on cancer stem cells is recorded as “cancer stem cells were killed”.

These data come from patent US10597398B2, “Suppression and regeneration promoting effect of low molecular weight compound on cancer and fibrosis” (NATIONAL UNIVERSITY CORPORATION TOTTORI UNIVERSITY, priority 2015, dated 2020).
